We go through eight compounds from patent US10766855B2, “Hydroxamate triterpenoid derivatives” (VIVACELL BIOTECHNOLOGY ESPANA S.L., priority 2016, dated 2020).

In series [1] the test system is STHdhQ7/Q7 and STHdhQ111/Q111 striatal cells. Briefly: 3-NP-induced cytotoxicity in striatal Q7 and Q111 cells (YOYO-1). In kind it is cell-based, mouse. The following applies: 6 h pre-treatment, 3-NP 10 mM 24 h; compound VII increasing concentrations, DFX 50 μM. On the procedure: FIG. 8. Compound VII abrogates 3-NP toxicity in Q7 and […] striatal cells. Q7 and Q111 Striatal cells were pretreated with increasing concentrations of compound VII for 6 h and then exposed to 3-NP (10 mM) for an additional 24 h, after which YOYO-1 staining was used to investigate cell death. Cell death was determined using the IncuCyte HD software and the treatment with 3-NP alone in Q111 cells was considered as 100% of cell death.
To investigate whether HIF activation in striatal Q7 and Q111 cells is sufficient to protect striatal neurons (provide neuroprotection), the effect of compound VII on 3-NP induced death was examined. […]
STHdh^Q7/Q7 and STHdh^Q111/Q111 cells (10^4 cells/well in 96-well plates) were incubated with YOYO-1 (Life Technologies) and then treated with 3-NP (10 mM) and or DFX (50 μM) as a positive control for PHDs inhibition. […] The uptake of YOYO-1 by damaged cells correlates with the increase in YOYO-1 fluorescence. Treated cells are placed in an Incucyte FLR imaging system, and the YOYO-1 fluorescence is measured after 24 h of 3-NP treatment. Following the incubation period object counting analysis was performed using the Incucyte FLR software to calculate the total number of YOYO-1 fluorescence positive cells and total DNA containing objects (end point). […]

Series [2] deals with NF-κB. Briefly: NF-κB inhibition in NIH-3T3-KBF-Luc cells stimulated with TNFα. The format is cell-based. The note with it: for IC50: TNFα 30 ng/ml, 6 h. How it is done:
To further study the target selectivity of the compounds described in the present invention the effect of the natural triterpenoids (OA; BA, UA, and MA), compounds II to XV of Formula (I) disclosed in present invention, and of comparative compound CDDO-Me on NF-κB inhibition, STAT-3 inhibition, Nrf2 activation and TGR5 activation was analyzed. For this study cell lines NIH-3T3-KBF-Luc, HeLa-STAT3-Luc, HaCaT-ARE-Luc and CHO-TGR5-CRE-luc were used respectively. The NIH3T3-KBF-Luc cell line stably transfected with the plasmid KBF-Luc plasmid, which contains three copies of NF-κB binding site (from major histocompatibility complex promoter), fused to a minimal simian virus 40 promoter driving the luciferase gene. Cells (1×10^4/well) were seeded in 96-well plates, treated with increasing concentrations of the compounds II to XV for 15 min and then stimulated with 30 ng/ml TNFα. After 6 h the luciferase activity in the cell lysates was measured as indicated above.

In series [3] the test system is Nrf2. Put plainly: Nrf2 activation/inhibition in HaCaT-ARE-Luc cells. The format is cell-based. The following applies: for EC50: 6 h. How it is done: (§1) The HeLa-STAT3-luc cells stably transfected with the plasmid 4×M67 pTATA TK-Luc. Cells (20×10^3 cells/ml) were seeded in 96-well plates, treated with increasing concentrations of the compounds II to XIV, and of comparative compound CDDO-Me, for 15 min and then stimulated with IFN-γ 25 IU/ml. After 6 h the luciferase activity in the cell lysates was measured as indicated above. […] The HaCaT-ARE-Luc cell line contains the Nqo1 Antioxidant Response Element (ARE)-Luc reporter plasmid. ARE is activated by all members of the CNC family of factors (Nrf1, Nrf2, Nrf3 and p45 NF-E2). The cells were cultivated in 96-well plates at the concentration of 25×10^3 cells/well in a CO2 incubator at 37° C. For induction of Nrf2 activation the cells were treated with increasing concentrations of the compounds II to XV, and of comparative compound CDDO-Me, for 6 h. As a positive control the cells were treated with 0.02 mM of the antioxidant Tert-butyl-hydroquinone (TBHQ). Luciferase activity in the cell lysates was measured as indicated above and the EC50 calculated (Table III). The CHO-TGR5-CRE-Luc cells stably transfected with the pTGR5 and CRE-Luc. The CRE-responsive luciferase construct encodes the firefly luciferase reporter gene under the control of a minimal (m)CMV promoter and tandem repeats of the CRE transcriptional response element (TRE) and is useful to monitor cAMP signaling pathways activated by TGR5 agonists. Cells (1×10^4/well) were seeded in 96-well plates, treated with increasing concentrations of the compounds II to XV and CDDO-Me, for 6 h. As a positive control the cells were treated with 10 μM of LCA (lithocholic acid). Luciferase activity in the cell lysates was measured as indicated above and the EC50 calculated (Table III).

Series [4] deals with HIF-1α. Put plainly: HIF-1α transactivation assay in NIH-3T3-EPO-Luc fibroblast cells. In kind it is cell-based. The note with it: for EC50: Fibroblast, read-out: Potency EC50 HIF-1α; for EC50 / Efficacy HIF-1α (IRA coefficient): 6 h stimulation; for Efficacy HIF-1α (IRA coefficient): relative to 150 μM DFX. How it is done: To investigate the biological activities of the different compounds, HIF-1α transactivation assays were performed either in NIH-3T3-EPO-Luc cells (Table II) or in HaCaT-EPO-luc cells (FIG. 2). The NIH3T3-EPO-luc and HaCaT-EPO-luc cells have been stably transfected with the plasmid Epo-Luc plasmid. The EPO-Hypoxia Response Element (HRE)-luciferase reporter plasmid contains three copies of the HRE consensus sequence from the promoter of the erythropoietin gene fused to the luciferase gene. NIH3T3-EPO-luc cells were maintained at 37° C. in a humidified atmosphere containing 5% CO2 in DMEM supplemented with 10% fetal calf serum (FBS), and 1% (v/v) penicillin/streptomycin. DFX was purchased from Sigma-Aldrich (USA). Cells (1×10^4/well in 96 well plates) were seeded the day before the assay. […] After six hours of stimulation the cells were lysed in 25 mM Tris-phosphate pH 7.8, 8 mM MgCl2, 1 mM DTT, 1% Triton X-100, and 7% glycerol during 15 min at RT in a horizontal shaker. Luciferase activity is measured using a microplate luminometer (Berthold) following the instructions of the luciferase assay kit (Promega, Madison, Wis., USA).

The test system of series [5] is TGR5. Put plainly: TGR5 activation in CHO-TGR5-CRE-Luc cells. The format is cell-based. The note with it: for EC50: 6 h.
Description: The CHO-TGR5-CRE-Luc cells stably transfected with the pTGR5 and CRE-Luc. […] As a positive control the cells were treated with 10 μM of LCA (lithocholic acid). Luciferase activity in the cell lysates was measured as indicated above and the EC50 calculated (Table III).
Series [6] relates to STAT3. Briefly: STAT3 inhibition in HeLa-STAT3-Luc cells stimulated with IFN-γ. The format is cell-based. The note with it: for IC50: IFN-γ 25 IU/ml, 6 h. On the procedure: as §1
Series [7] relates to Nrf2. Put plainly: Nrf2 activation/inhibition in HaCaT-ARE-Luc cells. The format is cell-based.

SMILES strings stand for the structures.

As for `CC(=O)N(O)CCCCCNC(=O)CCC(=O)N(O)CCCCCNC(=O)CCC(=O)N(O)CCCCCN` [DFX, desferrioxamine, reference compound], the “neuroprotection to 3-NP-induced cytotoxicity (cell death)” value in series [1] is “also protected the cells from the cytotoxic activity of 3-NP”.

As to `COC(=O)[C@]12CCC(C)(C)C[C@H]1[C@H]1C(=O)C=C3[C@@]4(C)C=C(C#N)C(=O)C(C)(C)[C@@H]4CC[C@@]3(C)[C@]1(C)CC2` [CDDO—Me, 2-Cyano-3,12-dioxo-oleana-1,9(11)-dien-28-oic acid methyl ester, reference compound], the “inhibition of the NF-κB pathway induced by TNFα (in words)” value in series [2] is on record as “clearly inhibited”. In addition, the IC50 in series [2] was determined as 1.2 µM; in series [6], 2.38 µM; in series [7] it was 0.06 µM. The “activation of the Nrf2 pathway (in words)” value in series [3] is “activated the Nrf2 pathway”. Moreover, the EC50 in series [3] is 40.9 µM; in series [4] it was over 50 µM; in series [5], over 50 µM. For the same compound, in series [4], the “activation of the EPO promoter as a surrogate marker of HIF-1α pathway activation (in words)” value is “does not result in activation of the HIF pathway”. Also, in series [6], the “inhibition of the STAT3 pathway induced by IFNγ (in words)” value is listed as “clearly inhibited”.

Take `CC1(C)CC[C@]2(C(=O)NO)CC[C@]3(C)C(=CC[C@@H]4[C@@]5(C)CC[C@H](O)C(C)(C)[C@@H]5CC[C@]43C)[C@@H]2C1` [Compound II, (3β) 3-Hydroxy-N-hydroxy-olean-12-en-28-amide]: the IC50 in series [2], in series [6] and in series [7] was over 50 µM each time. The EC50 in series [3] is over 50 µM; in series [4], 16.4 µM; in series [5], over 50 µM. For the same compound, the “Efficacy HIF-1α (IRA coefficient)” value in series [4] was found to be 0.39.

As to `CC1(C)CC[C@]2(C(=O)O)CC[C@]3(C)C(=CC[C@@H]4[C@@]5(C)C[C@@H](O)[C@H](O)C(C)(C)[C@@H]5CC[C@]43C)[C@@H]2C1` [Maslinic acid, reference compound], the IC50 in series [2], in series [6] and in series [7] was over 50 µM in each case. The EC50 in series [3] is over 50 µM; in series [4], over 50 µM; in series [5], 10.2 µM. Further, the “activation of the EPO promoter as a surrogate marker of HIF-1α pathway activation (in words)” value in series [4] is on record as “None of the natural triterpenoids”.

For `CC1(C)CC[C@]2(C(=O)NO)CC[C@]3(C)C(=CC(=O)[C@@H]4[C@@]5(C)CC[C@H](O)C(C)(C)[C@@H]5CC[C@]43C)[C@@H]2C1` [Compound IV, (3β) 3-Hydroxy-11-oxo-olean-12-en-N-hydroxy-28-amide], the IC50 in series [2], in series [6] and in series [7] was over 50 µM throughout. Moreover, the EC50 in series [3] is 10 µM; in series [4], 11.4 µM; in series [5] it was over 50 µM. Besides, the “Efficacy HIF-1α (IRA coefficient)” value in series [4] was 0.15.

As for `C=C(C)[C@@H]1CC[C@]2(C(=O)NO)CC[C@]3(C)[C@H](CC[C@@H]4[C@@]5(C)Cc6cnoc6C(C)(C)[C@@H]5CC[C@]43C)[C@@H]12` [Compound VIII, Lup-2-eno[2,3-d]isoxazol-N-hydroxy-28-amide], the IC50 in series [2], in series [6] and in series [7] was over 50 µM in each case. Further, the values for the EC50 in series [3], in series [4] and in series [5] were over 50 µM, 2.58 µM and 9.62 µM, respectively. Moreover, in series [4], the “Efficacy HIF-1α (IRA coefficient)” value was determined as 0.55. In series [5], the “agonistic TGR5 activity (in words)” value is listed as “showed agonistic TGR5 activity”.

Turning to `C=C(C)[C@@H]1CC[C@]2(C(=O)O)CC[C@]3(C)[C@H](CC[C@@H]4[C@@]5(C)CC[C@H](O)C(C)(C)[C@@H]5CC[C@]43C)[C@@H]12` [Betulinic acid, reference compound], the half-inhibitory concentration (IC50) in series [2], in series [6] and in series [7] was over 50 µM each time. In addition, the EC50 in series [3] was 9.02 µM; in series [4], over 50 µM; in series [5], 22.2 µM.

Consider `CC1(C)CC[C@]2(C(=O)NO)CC[C@]3(C)C(=CC[C@@H]4[C@@]5(C)C[C@@H](O)[C@H](O)C(C)(C)[C@@H]5CC[C@]43C)[C@@H]2C1` [Compound XIV, (2α,3β) 2,3-Dihydroxy-N-hydroxy-olean-12-en-28-amide], for which the half-inhibitory concentration (IC50) in series [2], in series [6] and in series [7] was over 50 µM in each case. Also, the concentration for a half-maximal effect (EC50) is over 50 µM in series [3], 7.1 µM in series [4] and over 50 µM in series [5]. The “Efficacy HIF-1α (IRA coefficient)” value in series [4] turned out to be 0.10.
